Measured values from US20180179166A1, “SMALL MOLECULE INHIBITORS OF GP120-MEDIATED HIV INFECTION AND METHODS OF USE” (ViroCarb Inc., priority 2014, published 2018).
Where two headings read alike, the source gives them in different places.

Key:
[1] = system: HIV-1IIIB virus (X4 tropism); test: Protocol 1: inhibition of HIV-1 in Jurkat T-cells, p24gag ELISA; type: cell-based; settings: read-out: percent inhibitory activity
Experimental: HIV-1IIIB virus (X4 tropism) was pretreated with a control solution of DMSO or a given compound dissolved in DMSO to a final concentration of 100 μM for 1 hr at 37° C. Pretreated HIV-1 virus was then added (100 μl of 0.1 MOI) to 0.5×10^6 Jurkat (JKT C) T-cells in 100 μl RPMI media and incubated at 37° C. for an additional 1 hr with occasional mixing.
After 1 hour, the cells were centrifuged at 1000 rpm for 5 minutes and the cell pellet washed wash thrice with 2 ml Ca^2+ Mg^2+ free PBS. After the last wash, the cells were resuspended in medium and transferred to 12-well tissue culture plates and placed at 37° C.
On days 2 and 5 of culture, 0.5 ml aliquots of culture supernatant is collected and replaced with 0.5 ml of fresh medium. Aliquots are stored at −80° C. until ready for p24gag ELISA. ELISA for p24gag was done using ELISA plates from Zeptometrix using a standard protocol.

[2] = system: HIV-1 BaL virus (R5 tropism); test: Protocol 2: inhibition of HIV-1 in PBMC, virus pre-treated with compound, p24gag ELISA; type: cell-based; settings: Human immunodeficiency virus 1, 144 h, 100 μM compound, HIV-1 BaL (R5), day 6, read-out: percent inhibitory activity
Experimental: The protocol involves PBMCs which were purified by centrifugation at 500 g using Ficoll-Paque™ reagent. The cells were re-suspended in RPMI (10% FBS, 2 ug/ml PHA, 20 U/ml of IL-2) and incubated at 37° C. in 5% CO2 for 3 days.
HIV-1 BaL virus (R5 tropism) was pre-treated with a control solution of DMSO or a given compound dissolved in DMSO to a final concentration of 20-100 μM for 1 hour at 37° C. Pretreated HIV-1 viruses were then added (100 μl of 0.1 MOI) to 5×10^5 PBMCs in 100 μl RPMI media and then incubated at 37° C. for an additional 1 hour with occasional mixing. After 1 hour, the cells were centrifuged at 1000 rpm for 5 minutes and the cell pellet washed wash thrice with 2 ml Ca^2+ Mg^2+ free PBS.
After the last wash, the cells are re-suspended in medium and transferred to 12-well tissue culture plates and place at 37° C.
On day 6 of culture, 0.5 ml aliquots of culture supernatant were collected. Aliquots were stored at −80° C. until ready for p24gag ELISA. ELISA for p24gag was done using ELISA plates from Zeptometrix using a standard protocol.

[3] = system: HIV-BaL virus (R5 tropism); test: Protocol 4: inhibition of HIV-1 in U87.CD4.CCR5 cells, p24gag ELISA; type: cell-based; settings: Human immunodeficiency virus 1, 96 h, day 4 post-infection, read-out: percent inhibitory activity; for inhibition at 20 µM: 20 μM compound
Experimental: U87.CD4.CCR5 cell lines (5×10^4/well) were seeded in 24 well plates overnight. HIV-BaL virus (R5 tropism) was pretreated with a control solution of DMSO or a given compound dissolved in DMSO to a final concentration of 20-200 μM for 1 hr at 37° C.
Pretreated HIV-1 virus was then added (100 μl of 0.1 MOI) to pre-plated U87.CD4.CCR5 cells in 200 μl DMEM media and then incubated at 37° C. for an additional 1 hour with occasional mixing.
After 1 hour, the cells in each well were washed with 1 ml Ca^2+ Mg^2+ free PBS three times. After the last wash, 1 ml of DMEM was added to each well. On day 4 post-infection, 0.2 ml aliquots of culture supernatant was collected. Aliquots were stored at −80° C. until ready for p24gag ELISA. ELISA for p24gag was done using ELISA plates from Zeptometrix using a standard protocol.

[4] = system: HIV-1IIIB virus (X4 tropism); test: Protocol 1: inhibition of HIV-1 in Jurkat T-cells, p24gag ELISA; type: cell-based; settings: Human immunodeficiency virus 1, 20 μM compound, HIV-1IIIB (X4), read-out: percent inhibitory activity
[5] = system: HIV-1 IIIb virus (X4 tropism); test: Protocol 3: inhibition of HIV-1 in TZM-bl reporter cells, luciferase, X4 virus; type: cell-based; settings: Human immunodeficiency virus 1, IIIB, read-out: percent inhibitory activity against X4; for inhibition at 200 µM: 200 μM compound
Experimental: (§1) HIV-BaL virus (R5 tropism) and HIV-1 IIIb virus (X4 tropism) were pretreated with a given compound dissolved in DMSO to a final concentration of 100-200 μM for 1 hr at 37° C. in 96 well tissue culture plates. The TZM-bl HIV reporter cell line (1×10^4/well) in 100 ul DMEM is then added to each well and the 96 well tissue culture plates are incubated at 37° C. in 5% CO2 incubator.
(§2) TZM-bl cells were obtained from the NIH AIDS Reagent Program (Germantown Md., USA). TZM-bl, previously designated JC53-bl (clone 13) is a HeLa cell line. The parental cell line (JC.53) stably expresses large amounts of CD4 and CCR5. The TZM-bl cell line was generated from JC.53 cells by introducing separate integrated copies of the luciferase and ß-galactosidase genes under control of the HIV-1 promoter. The TZM-bl cell line is highly sensitive to infection with diverse isolates of HIV-1. The TZM-bl indicator cell line enables simple and quantitative analysis of HIV using either ß-gal or luciferase as a reporter. It is maximally sensitive to HIV infection by including DEAE-dextran in the infection medium. […] Further information about TZM-bl cells can be found in U.S. Pat. No. 6,797,462, issued to Tranzyme Pharma.
(§3) After 48 hours, half of the medium was removed and replaced with commercially available reagents that contain lysing buffer and substrate for luciferase. After 2 minutes of lysis and incubation, the luciferase activity of the TZM-bl cell is read using a commercial luminometer. The readout is translated as relative light units (RLU).

[6] = system: JR-FL-R5 virus; test: Example 6: U87.CD4.CCR5 cells infected with replication-deficient luciferase HIV strain; type: cell-based; settings: Human immunodeficiency virus 1, U87/CD4/CCR5, 48 h, read-out: % HIV inhibitory activity
Experimental: Methods. U87.CD4.CCR5 cells (2.5×10^4/well) were seeded overnight and then infected with a replication-deficient HIV strain containing a luciferase insertion in the nef gene (JR-FL-R5 virus). JR-FL-R5 virus was pre-incubated with each compound for 1 hour prior to infection. After two days, the cells were washed, lysed and measured for luciferase activity, which is indicative of viral integration and/or transcription. Compounds were tested in quadruplicates.

[7] = system: HIV BaL; test: Example 5: HIV inhibition in human PBMC infected first, then treated with compound; type: cell-based, HIV-1; settings: read-out: % HIV inhibitory activity
Experimental: In this Example, Compounds #32 and #38 were tested using human peripheral blood mononuclear cells (PBMC). The protocol used is the same as that of Example 2—Protocol 2, delineated in detail, above.
Methods. Briefly, 5×10^5 activated PBMCs were used per well in a 12-well tissue culture plate. The PBMCs were infected with HIV BaL for 1 hour and washed 2× with RPMI medium. The PBMCs were then mixed with compound #32 or #38 at concentrations of 6.0 μM, 25 μM or 100 μM, with solutions containing 20U/m1 of IL-2.
At day 3-post infection, 500 μl of fresh medium containing appropriate concentration of compounds were added. The supernatants were harvested at day 8. The level of HIV infection was determined as described in protocol 2.

[8] = system: HIV-BaL virus (R5 tropism); test: Protocol 3: inhibition of HIV-1 in TZM-bl reporter cells, luciferase, R5 virus; type: cell-based; settings: Human immunodeficiency virus 1, BAL, read-out: percent inhibitory activity against R5; for inhibition at 200 µM: 200 μM compound
Experimental: as §1, §2, §3

[9] = Human immunodeficiency virus 1, 100 μM compound, HIV-1IIIB (X4), Jurkat T-cells
[10] = Human immunodeficiency virus 1, Jurkat
[11] = Human immunodeficiency virus 1, BAL, PBMC, 192 h
[12] = 100 μM compound, TZM-bl cells, 48 hours

CCOC(=O)c1cnc(SCC(=O)Nc2cccc(C(=O)O)c2)nc1N [#1]
inhibition at 100 µM [1, 9]: 3%

Nc1cc(=O)[nH]c(SCC(=O)Nc2ccc(C(=O)O)cc2)n1 [#2]
inhibition at 100 µM [1, 9]: 88%
inhibition at 100 µM [2]: 30%

O=C(CSc1nnc(O)nc1O)N/N=C/c1ccc(C(=O)O)cc1 [#3]
inhibition at 100 µM [1, 9]: 71%
inhibition at 100 µM [2]: 34%

Nc1cc(=O)[nH]c(SCC(=O)Nc2ccc3c(c2)OCO3)n1 [#21]
inhibition at 100 µM [2]: 40%

Nc1cc(=O)[nH]c(SCC(=O)Nc2ccc(F)c(Cl)c2)n1 [#25]
inhibition at 100 µM [1, 10]: 18%

Nc1cc(=O)[nH]c(SCC(=O)Nc2ccc([N+](=O)[O-])cc2)n1 [#27]
inhibition at 100 µM [1, 10]: 20%

Nc1cc(=O)[nH]c(SCC(=O)Nc2ccc(C(=O)O)cn2)n1 [#28]
inhibition at 20 µM [3]: 27%

CCOC(=O)c1ccc(NC(=O)CSc2nc(N)cc(=O)[nH]2)nc1 [#29]
inhibition at 20 µM [4]: 75%
inhibition at 20 µM [3]: 24%

Nc1cc(=O)[nH]c(SCC(=O)Nc2cnc(C(=O)O)cn2)n1 [#30]
inhibition at 20 µM [3]: 19%

COC(=O)c1cnc(NC(=O)CSc2nc(N)cc(=O)[nH]2)cn1 [#31]
inhibition at 20 µM [3]: 21%

Nc1cc(=O)[nH]c(SCC(=O)Nc2ccc(CC(=O)O)cc2)n1 [#32]
inhibition at 20 µM [4]: 80%
inhibition at 200 µM ([5]; TZM-bl cells, 48 hours): 61%
inhibition at 2 µM [6]: 32%
inhibition at 6 µM ([7]; Human immunodeficiency virus 1, 192 h, 6.0 μM compound, human PBMC, HIV BaL, day 8): 54%
inhibition at 25 µM ([7]; Human immunodeficiency virus 1, 192 h, 25 μM compound, human PBMC, HIV BaL, day 8): 65%
inhibition at 100 µM ([7]; Human immunodeficiency virus 1, 192 h, 100 μM compound, human PBMC, HIV BaL, day 8): 82%
inhibition at 200 µM ([8]; TZM-bl cells, 48 hours): 94%

CCOC(=O)Cc1ccc(NC(=O)CSc2nc(N)cc(=O)[nH]2)cc1 [#33]
inhibition at 20 µM [3]: 27%

Nc1cc(=O)[nH]c(SCCC(=O)Nc2ccc(C(=O)O)cc2)n1 [#34]
inhibition at 20 µM [3]: 33%
inhibition at 200 µM ([5]; TZM-bl cells, 48 hours): 62%
inhibition at 200 µM ([8]; TZM-bl cells, 48 hours): 61%

COC(=O)c1ccc(NC(=O)CCSc2nc(N)cc(=O)[nH]2)cc1 [#35]
inhibition at 20 µM [3]: 27%

Nc1cc(=O)[nH]c(SCCC(=O)NCc2ccc(C(=O)O)cc2)n1 [#36]
inhibition at 20 µM [4]: 50%
inhibition at 20 µM [3]: 7%

O=C(CSc1nnc(O)nc1O)N/N=C/c1ccccn1 [#37]
inhibition at 200 µM ([3]; 200 μM compound): 28%
inhibition at 100 µM [1, 9]: 45%

O=C(CSc1nnc(O)nc1O)N/N=C/C=C/c1ccccc1 [#38]
inhibition at 100 µM ([5]; TZM-bl, 48 h): 69%
inhibition at 2 µM [6]: 30%
inhibition at 100 µM [1, 10]: 44%
inhibition at 6 µM [7, 11]: 70%
inhibition at 25 µM [7, 11]: 90%
inhibition at 100 µM [7, 11]: 100%
inhibition at 100 µM ([8]; TZM-bl, 48 h): 73%

O=C(CSc1nnc(O)nc1O)N/N=C/c1ccc(Br)cc1 [#39]
inhibition at 100 µM [5, 12]: 15%
inhibition at 100 µM [1, 9]: 32%
inhibition at 100 µM [8, 12]: 15%

O=C(CSc1nnc(O)nc1O)N/N=C/c1cccnc1 [#40]
inhibition at 100 µM [5, 12]: 57%
inhibition at 100 µM [8, 12]: 71%

O=C(CSc1nnc(O)nc1O)N/N=C/c1ccc(O)c([N+](=O)[O-])c1 [#41]
inhibition at 100 µM [5, 12]: 10%
inhibition at 100 µM [8, 12]: 14%

O=C(CSc1nnc(O)nc1O)N/N=C/c1ccc(C(=O)O)cn1 [#42]
inhibition at 100 µM [5, 12]: 25%
inhibition at 100 µM [8, 12]: 25%

CCOC(=O)c1ccc(/C=N/NC(=O)CSc2nnc(O)nc2O)nc1 [#43]
inhibition at 100 µM [5, 12]: 16%
inhibition at 100 µM [8, 12]: 12%

O=C(CSc1nnc(O)nc1O)N/N=C/c1ccc(-c2nn[nH]n2)cn1 [#44]
inhibition at 20 µM [3]: 10%

O=C(CSc1nnc(O)nc1O)N/N=C/c1ccc(-c2nccs2)cn1 [#47]
inhibition at 100 µM [5, 12]: 29%
inhibition at 100 µM [8, 12]: 27%

O=C(Cc1nnc(O)nc1O)N/N=C/C=C/c1ccccc1 [#48]
inhibition at 0.05 µM [6]: 28%

O=C(CC1CCS(=O)(=O)C1)N/N=C/C=C/c1ccccc1 (centres unmarked) [#49]
inhibition at 0.05 µM [6]: 45%

O=C(Cn1c(-c2ccccn2)nc2ccccc21)N/N=C/C=C/c1ccccc1 [#51]
inhibition at 0.05 µM [6]: 22%
